The melting point is the temperature, or range, at which the solid turns liquid.

`O=[N+]([O-])c1ccc(C(Br)C(Br)c2ccc(C(Br)C(Br)c3ccc([N+](=O)[O-])cc3[N+](=O)[O-])cc2)c([N+](=O)[O-])c1` (stereo not given) had a melting point of 265 °C.

Regarding `NCCOS(=O)(=O)O`, the melting point was 277 to 280 °C.

`CNC(N)=O` registered a melting point of 103 °C.

In the case of `N#Cc1ccc(OCc2ccc3nonc3c2)cc1`, the melting point lay within 160 to 162 °C.

`CCc1cc(C)cc(O)c1` yielded a melting point of 51.6 °C.

In turn, `CCCC(=O)c1cc2ccccc2oc1=O` gave a melting point of 93 to 94 °C.

The molecule `CC1(C)CC(=O)C(=NNc2ccccc2)C(=O)C1` had a melting point of 148 °C.

`COC(=O)c1c(P(c2ccccc2)c2ccccc2)ccc2ccccc12` yielded a melting point of 108 °C.

On to `O=Cc1c[nH]c2ccc(Cl)cc12`, for which the melting point was found to be 211 °C.

Consider `O=C1OC(c2ccccc2)(c2ccccc2)c2ccccc21`, for which the melting point was found to be 120 °C.

For `CCCSc1ccc2[nH]c(NC(=O)OC)nc2c1`, the melting point is 208 °C.

`NC1(C(=O)O)CCCC1` gave a melting point of 320 to 322 °C.

Molecule `O=C(O)C(O)c1cc(F)cc(F)c1` (stereo not given) gave a melting point of 136 °C.

On to `Clc1cccc2cc3c(Cl)cccc3cc12`, for which the melting point turned out to be 189 °C.

Consider `CCC(c1ccccc1)c1c(O)oc2ccccc2c1=O` (stereo not given), for which the melting point is 180 °C.

`CCCCCCCCCCCCC1CCC1=O` (stereo not given) yielded a melting point of 28 to 31 °C.

For the molecule `c1ccc(-c2cccc3ccccc23)cc1`, the melting point worked out at 45 °C.

On to `CCOC(=O)/C(C#N)=C(/c1ccc([N+](=O)[O-])cc1)C(C(=O)OCC)C(=O)OCC`, for which the melting point stood at 110 °C.

Molecule `CC(C)(C)c1cc(C(C)(C)c2ccc(O)c(C(C)(C)C)c2)ccc1O` gave a melting point of 114 °C.

`Cc1cccc(C)c1NC(=O)c1cnc(C(C)(C)C)c(Cl)n1` returned a melting point of 146 °C.

`Cc1nc(-c2ccc(Br)s2)cs1` had a melting point of 78 to 79 °C.

As for `Cc1c(C(C)C)c(=O)n(-c2ccccc2)n1C`, the melting point came out at 103 °C.

For the molecule `CCOC(=O)C(C#N)=C1SCCS1`, the melting point was 106 °C.

Regarding `CN1CCN(C2CCNCC2)CC1`, the melting point was 54.5 °C.

The molecule `CC(=O)c1c(F)ccc(F)c1C(=O)O` showed a melting point of 86 °C.

Consider `O=C1OC2(c3ccccc31)c1ccc(O)c(Br)c1Oc1c2ccc(O)c1Br`, for which the melting point is 285 °C.

`Nc1ccc2c(c1)COCO2` registered a melting point of 69 °C.

The molecule `CC(=O)c1ccc(F)cc1O` displayed a melting point of 31.5 °C.

In turn, `O=Cc1ccc(-n2cccn2)cc1` came in with a melting point of 82 to 83 °C.

`NC(=S)NCCN1CCCCC1` showed a melting point of 107 to 110 °C.

With `O=C(O)c1cc(C(=O)O)cc(C(=O)O)c1`, the melting point is 380 °C.

For the molecule `O=C(O)c1cccc2c1CCCC2`, the melting point was 147 to 150 °C.

As for `CCCCCCCCOc1ccc(C(C)=O)cc1OCCCCCCCC`, the melting point was in the range of 59 to 61 °C.

With `O=[N+]([O-])c1ccc2[nH]ccc2c1`, the melting point lay in the range of 205 to 207 °C.

In the case of `N#CCN1C(=O)c2ccccc2S1(=O)=O`, the melting point fell in the range of 142 to 143 °C.

As for `O=Cc1ccccc1/C=C/c1ccc([N+](=O)[O-])cc1[N+](=O)[O-]`, the melting point is 186 °C.

For the molecule `O=C(N=C=S)c1ccc(Cl)cc1`, the melting point fell in the range of 45 to 46 °C.

Molecule `CC(=O)Nc1ccc(OCC(O)CNC(C)C)cc1` (stereo not given) came in with a melting point of 135 °C.

For `O=C(C(Cl)(Cl)Cl)C(Cl)(Cl)Cl`, the melting point was -2 °C.

The molecule `Cc1ccc(N)c(C(=O)O)c1` showed a melting point of 174 to 177 °C.

Take `Cn1nnc2cc(C(=O)Cl)ccc21`: the melting point lay within 125 to 126 °C.

`CCC1=C(C)CN(C(=O)NCCc2ccc(S(=O)(=O)NC(=O)NC3CCC(C)CC3)cc2)C1=O` (stereo not given) registered a melting point of 207 °C.

The molecule `CC12CCC(C(COC=O)C1=O)C2(C)C` (stereo not given) registered a melting point of 74 °C.

For `Cn1nc(CC#N)c2c(N)ncnc21`, the melting point is 135 to 138 °C.

Take `c1ccc(-n2nc3ccccc3n2)cc1`: the melting point came to 107 °C.

`CC1CCCC(=O)C1=O` (stereo not given) yielded a melting point of 58 °C.

`O=C(c1ccccc1)c1ccc(F)c(C(F)(F)F)c1` returned a melting point of 46 °C.

Take `N#Cc1ccc(N)c(C(F)(F)F)c1`: the melting point was 62 °C.

Molecule `O=C(OCCO)c1ccccc1O` gave a melting point of 37 °C.

The molecule `CNc1ccccc1OC` registered a melting point of 30 to 33 °C.

Molecule `O=Cc1cccn1-c1ccc(C(F)(F)F)cc1` gave a melting point of 97 to 98 °C.

As to `CCOC(=O)c1ccc2cn[nH]c2c1`, the melting point was found to be 125 °C.

In the case of `Cn1nc(-c2ccco2)cc1C(=O)O`, the melting point was 130 °C.

The molecule `Nc1ccc(C(F)(F)F)cn1` yielded a melting point of 47 °C.

Turning to `CC1=C(C)C2=CC=C3C(O)=C(CC(C)O)C(=O)C(O)=C3C2(C)CC1=O` (stereo not given), the melting point amounted to 187 °C.

Consider `Cc1cccc([N+](=O)[O-])c1C`, for which the melting point was 15 °C.

The molecule `CCN(CC)CC(=O)OCC(=O)C1(O)CCC2C3CCC4=CC(=O)CCC4(C)C3C(O)CC21C` (stereo not given) came in with a melting point of 162 °C.

In turn, `O=[N+]([O-])c1ccc(Oc2ccc(N=C=S)cc2)cc1` yielded a melting point of 122 to 124 °C.

`Cc1nc(-c2ccc(CBr)cc2)cs1`: the melting point lay in the range of 73 to 76 °C.

Molecule `CCOC(=O)c1cc2cc(OC(F)(F)F)ccc2[nH]1` yielded a melting point of 144 to 145 °C.

For the molecule `Cc1cc(NN)nc(C)n1`, the melting point lay within 189 to 190 °C.

`O=C(O)c1nc(Cl)c(Cl)c(Cl)c1Cl`: the melting point was found to be 172 °C.

`CCC(Oc1ccccc1)C(=O)O` (stereo not given) showed a melting point of 81 °C.

For the molecule `CCC(c1ccc2cc(OC)ccc2c1)C(C)(C)C(=O)O` (stereo not given), the melting point turned out to be 140 °C.

Molecule `C=C1C(C)C2C(Cc3ccccc3)NC(=O)C23OC(=O)C=CC(O)CCCC(C)CC=CC3C1O` (stereo not given) yielded a melting point of 218 to 223 °C.

Consider `N#Cc1cccc(Cn2c(=O)oc3ccccc32)c1`, for which the melting point fell in the range of 170 to 172 °C.

For the molecule `CCCCCCC(=O)CCCCC`, the melting point turned out to be 10 °C.

For `CCC1OC(=O)C(O)=C1C` (stereo not given), the melting point was in the range of 27 to 30 °C.

Molecule `c1ccc2nonc2c1` gave a melting point of 54 °C.

`Cc1ccc(C(=O)O)o1` registered a melting point of 110 °C.

`O=C1CNC(=O)CN1`: the melting point is 300 °C.

`C=CCCC(=C)C` came in with a melting point of -129 °C.

Molecule `O=S(=O)(Cl)c1ccc(Oc2ccccc2)nc1` came in with a melting point of 114 to 116 °C.

As to `O=C(NC(=O)c1c(F)cccc1F)Nc1ccc(Oc2ccc(C(F)(F)F)cc2Cl)cc1F`, the melting point turned out to be 167 °C.

The molecule `CC(=O)CN1C(=O)N2CCc3ccccc3C2(c2ccc(Cl)cc2)C1=O` (stereo not given) registered a melting point of 173 to 175 °C.

In the case of `CCCCCCc1ccc(O)cc1`, the melting point came out at 32 °C.

For `CC(C=CC=C(C)C=CC1=C(C)C=CCC1(C)C)=CC=O`, the melting point amounted to 77.5 °C.

`N#Cc1ncccc1Cl` came in with a melting point of 84 °C.

As to `ClCC(Cl)(Cl)C(Cl)(Cl)Cl`, the melting point worked out at 26 °C.

`O=C(C=CN(O)c1ccccc1)c1ccc2c(c1)CCCC2` returned a melting point of 148 °C.

These data come from a melting point compilation (Tetko et al.).
